Where a SMILES comes first, the peptide text is derived from it. [ ]: non-standard residue; d: D form. dPhe(4-Cl) = N[C@H](Cc1ccc(Cl)cc1)C(=O)O; NMeL = CN[C@@H](CC(C)C)C(=O)O; ΔPro = O=C(O)[C@@H]1C=CCN1
What was measured:
[1] = system: male rats; experiment: contraceptive treatment of male rats, 14-day daily injection; type: in vivo, rat; conditions: 14-day treatment
Description: The peptide is used at a level effective to reduce testes and seminal vesicles weights and also to inhibit spermatogenesis after a 14-day administration to male rats. […] Prostate weights of male rats recover in 2-3 weeks and seminal vesicles weights in 4-5 weeks. It is preferred to use dosage levels in the range of from about 0.1 to about 1 milligram per rat per day, which can be administered without detrimental side effects.
(§1) Male rats (about 320 grams each) are each treated with 1 milligram of the peptide synthesized in Example I, once a day, for 14 days by injection in 0.2 ml. of corn oil. All the rats show a decrease in testes and seminal vesicles weight, spermatogenesis and plasma androgen levels.
Full recovery of testes and seminal vesicle weights and spermatogenesis ultimately occurs following cessation of the 14-day peptide administration. […] Fertility, as assessed by the ability to impregnate females, is restored in all of the rats which have not been sacrificed within 6 weeks after cessation of the injections.
as §1, with “A first group (I) of male” for “Male”, “Peptide A” for “the peptide”, “III, every day” for “I, once a day,”, “days,” for “days”, “levels. […]” for “levels.”

[2] = system: pituitary gland of mammalians; conditions: cited from earlier work

| Molecule | side effects / damage [1] | potency as an inhibitor for the release of gonadotropins relative to the same peptide with Gly in the 6-position [2] [times] |
| --- | --- | --- |
| CC(=O)N1CC=C[C@H]1C(=O)N[C@H](Cc1ccc(Cl)cc1)C(=O)N[C@H](Cc1c[nH]c2ccccc12)C(=O)N[C@@H](CO)C(=O)N[C@@H](Cc1ccc(O)cc1)C(=O)N[C@H](Cc1c[nH]c2ccccc12)C(=O)N(C)[C@@H](CC(C)C)C(=O)N[C@@H](CCCNC(=N)N)C(=O)N1CCC[C@H]1C(=O)NCC(N)=O [Example I, [Ac--dehydro Pro^1, pCl--D--Phe^2,D--Trp^3,6,N^α MeLeu^7]--LRF] (Ac-[ΔPro][dPhe(4-Cl)][dW]SY[dW][NMeL]RPG-NH2) | without harmful side effects or irreversible damage | – |
| [des His^2, D--Ala^6 ] LRF | – | 3 |
